Broadly, the IC50 is the concentration at which inhibition is half-maximal. Low values mean greater potency, high ones weaker potency.

A value given as a limit tells only on which side of the number the result lay.

The first assay has as its system Human Jurkat T-cells (clone N). The assay is described as follows: Jurkat T-cell activation (anti-TCR, CD69 upregulation). The assay is classed as cell-based.
Conditions: not given
In short, it runs like this: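 Readout is CD69 upregulation by flow cytometry (anti-CD69-APC, 20 min at 4 °C) after 20 h anti-TCR (C305, 500 ng/ml) stimulation at 37 °C.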
Turning to `COC(=O)COc1ccc(Nc2ncc(C)c(Nc3ccc(OCC(=O)OC)cc3)n2)cc1` [Compound R926258], the IC50 is over 10 µM. Compound `CNC(=O)COc1cccc(Nc2ncc(F)c(Nc3cccc(NC)c3)n2)c1` [Compound R950267] gave a half-inhibitory concentration (IC50) of 1.99 µM.

In the case of `CC(C)NC(=O)COc1ccc(Nc2ncc(C#N)c(Nc3ccc(OCC(=O)NC(C)C)cc3)n2)cc1` [Compound R925861], the IC50 is 20.2 µM. On the same count and under the same terms, the value for `COc1ccc(Nc2nc(Nc3cc(C)c(O)c(Cl)c3)ncc2F)cc1CN1CCNCC1` [Compound R940318] was 1.39 µM; that for `CNC(=O)COc1cccc(Nc2ncc(F)c(Nc3ccc(OC)c(C(=O)NC)c3)n2)c1` [Compound R940306] was 11 µM. Same read-out and setting: the value for `CCOC(=O)COc1cccc(Nc2ncc(F)c(Nc3ccc(-n4cnc(Cl)c4Cl)cc3)n2)c1` [Compound R926809] was over 10 µM. The same measure, in the same setting: the value for `Cc1noc(COc2ccc(Nc3ncc(F)c(Nc4cccc(O)c4)n3)cc2)n1` [Compound R935141] was over 10 µM; that for `CCOC(=O)COc1ccc(Nc2ncc(F)c(Nc3cccc(O)c3)n2)cc1` [Compound R926395] was 17.7 µM; that for `CNC(=O)COc1cccc(Nc2ncc(F)c(Nc3cccc(N)c3)n2)c1` [Compound R950263] was 1.91 µM.

`CNC(=O)COc1cccc(Nc2ncc(F)c(Nc3ccc(OC)c(C(=O)OC)c3)n2)c1` [Compound R940300]: the midpoint of inhibition, the IC50, lay at 9.28 µM. On the same count and under the same terms, the value for `COC(=O)COc1ccc(Nc2ncc(F)c(Nc3cccc(C#N)c3)n2)cc1` [Compound R945110] was over 10 µM; that for `O=C(CNc1cccc(Nc2ncc(F)c(Nc3ccc4c(c3)OCCO4)n2)c1)NCCNCc1ccccc1` [Compound R950198] was 1.99 µM. The same measure, in the same setting: then `OCCOc1cccc(Nc2ncc(F)c(Nc3ccc(CO)c(CO)c3)n2)c1` [Compound R940292], with 2.78 µM; and `CNC(=O)COc1cccc(Nc2ncc(F)c(Nc3ccc4c(c3)C=CCO4)n2)c1` [Compound R950385], with 2.58 µM.

`COCOc1ccc(Nc2nc(Nc3cccc(O)c3)ncc2F)c(F)c1` [Compound R926680] yielded an IC50 of 5.7 µM. On the same count and under the same terms, then `CNC(=O)CCn1ncc2cc(Nc3ncc(F)c(Nc4cccc(O)c4)n3)ccc21` [Compound R935305], with 1.83 µM; and `O=C(COc1cccc(Nc2ncc(F)c(Nc3ccc4c(c3)OCCO4)n2)c1)N1CCOCC1` [Compound R926484], with over 10 µM. The same measure, in the same setting: then `CNC(=O)COc1cccc(Nc2ncc(F)c(Nc3ccc4c(c3)C(OC(C)=O)CCO4)n2)c1` (centres unmarked) [Compound R950382], with 1.55 µM; and `N#CCOc1ccc(Nc2nc(Nc3cccc(O)c3)ncc2F)cc1` [Compound R945071], with 0.631 µM.

`NC(=O)Cn1c(=O)oc2ccc(Nc3ncc(F)c(Nc4ccc5c(c4)OCCO5)n3)cc21` [Compound R926847] had an IC50 of 11.8 µM.

The compound `COC(=O)C(C)Oc1ccc(Nc2ncc(F)c(Nc3ccc(OC(C)C(=O)OC)cc3)n2)cc1` (mixture of isomers) [Compound R926254] displayed an IC50 of over 10 µM. Same read-out and setting: the value for `Cn1ncc2cc(Nc3nc(Nc4cccc(O)c4)ncc3F)ccc21` [Compound R935204] was 3.87 µM; that for `NC(=O)COc1ccc(Nc2nc(Nc3cccc(O)c3)ncc2F)cc1` [Compound R945063] was 6.04 µM; that for `COC(=O)c1ccc(Cn2cc3ccc(Nc4ncc(F)c(Nc5ccc(OC(C)C)cc5)n4)cc3n2)c(OC)c1` [Compound R935338] was 5.89 µM. Still for that read-out and setting: the value for `CC1Sc2ccc(Nc3ncc(F)c(Nc4cccc(O)c4)n3)cc2NC1=O` (racemic) [Compound R909263] was 6.2 µM; that for `Cc1noc(COc2ccc(Nc3ncc(F)c(Nc4ccc(OC(C)C)cc4)n3)cc2)n1` [Compound R935142] was 9.67 µM. Compound `O=C(c1cc2cc(Nc3ncc(F)c(Nc4ccc5c(c4)OCCO5)n3)ccc2o1)N1CCOCC1` [Compound R926492] showed a concentration for half-maximal inhibition (IC50) of 3.33 µM.

As for `N#CCOc1ccc(Nc2ncc(F)c(Nc3cccc(O)c3)n2)cc1` [Compound R945070], the IC50 is over 10 µM. On the same count and under the same terms, the value for `COC(=O)COc1ccc(Nc2ncc(F)c(Nc3ccc4c(c3)OCCCO4)n2)cc1` [Compound R935182] was 23.9 µM. Still for that read-out and setting: the value for `CNC(=O)COc1cccc(Nc2nc(Nc3cccc(O)c3)ncc2C(F)(F)F)c1` [Compound R926741] was 4.59 µM; that for `O=C(O)COc1ccc(Nc2ncc(F)c(Nc3ccc4c(c3)OCCO4)n2)cc1` [Compound R926238] was over 10 µM; that for `CCOC(=O)CCn1ncc2cc(Nc3ncc(F)c(Nc4ccc5c(c4)OCCO5)n3)ccc21` [Compound R935301] was 2.32 µM. Compound `O=C(CNc1cccc(Nc2ncc(F)c(Nc3cccc(O)c3)n2)c1)N1CCOCC1` [Compound R950221] yielded an IC50 of 20.3 µM. Still for that read-out and setting: the value for `CC(C)Oc1ccc(Nc2nc(Nc3ccc4cnn(CCCO)c4c3)ncc2F)cc1` [Compound R935290] was 3.43 µM; that for `CCOC(=O)CSc1ccc(Nc2ncc(F)c(Nc3ccc4c(c3)OCCO4)n2)cn1` [Compound R926727] was over 10 µM; that for `CNC(=O)COc1cccc(Nc2ncc(F)c(Nc3ccc(OC(C)C)cc3)n2)c1` [Compound R926730] was 1.84 µM. In turn, `COc1cc(C(=O)NS(=O)(=O)c2ccccc2C)ccc1Cn1ncc2ccc(Nc3ncc(F)c(Nc4ccc(OC(C)C)cc4)n3)cc21` [Compound R935322] displayed an IC50 of over 10 µM. The same measure, in the same setting: the value for `Oc1cccc(Nc2ncc(F)c(Nc3cccc(O)c3)n2)c1` [Compound R926461] was 3.39 µM. Still for that read-out and setting: the value for `COC(=O)COc1ccc(Nc2nc(Nc3ccc(OCC(N)=O)cc3)ncc2F)cc1` [Compound R945060] was 6.08 µM; that for `Fc1cnc(Nc2ccc3[nH]ncc3c2)nc1Nc1ccc2c(c1)OCCO2` [Compound R935198] was 1.45 µM; that for `CNC(=O)COc1cccc(Nc2ncc(F)c(Nc3cccc(N)c3)n2)c1` [Compound R950262] was 3.15 µM. The same measure, in the same setting: then `COC(=O)COc1ccc(Nc2nc(Nc3ccc(OCC#N)cc3)ncc2F)cc1` [Compound R945062], with over 10 µM. In turn, `COC(=O)COc1cccc(Nc2ncc(F)c(Nc3cc(C)c(O)c(Cl)c3)n2)c1` [Compound R945148] returned an IC50 of 16.2 µM. Consider `CNC(=O)COc1cccc(Nc2ncc(F)c(Nc3cccc(C(N)=O)c3)n2)c1` [Compound R940299], for which the concentration for half-maximal inhibition (IC50) worked out at 24.9 µM. Same read-out and setting: then `CNC(=O)COc1ccc(Nc2ncc(F)c(Nc3cccc(O)c3)n2)cc1` [Compound R945170], with 4.12 µM; and `CON=C(N)COc1ccc(Nc2ncc(F)c(Nc3cccc(O)c3)n2)cc1` [Compound R945167], with 5.07 µM; and `Cc1cc(Nc2nc(Nc3cccc(OCC(=O)N4CCNCC4)c3)ncc2F)cc(Cl)c1O` [Compound R945149], with 1.23 µM. Still for that read-out and setting: then `Cc1cc(Nc2nc(Nc3cccc(OCC(=O)N4CCOCC4)c3)ncc2F)cc(Cl)c1O` [Compound R940265], with 5.56 µM. For the compound `COC(=O)COc1cccc(Nc2ncc(F)c(Nc3cccc(O)c3)n2)c1` [Compound R945118], the IC50 worked out at 9.49 µM.

Take `Oc1cccc(Nc2nc(Nc3ccc(OCc4nnn[nH]4)cc3)ncc2C(F)(F)F)c1` [Compound R920846]: the half-inhibitory concentration (IC50) is 10.4 µM. Same read-out and setting: then `Nc1cccc(Nc2ncc(F)c(Nc3cccc(NCCOCc4ccccc4)c3)n2)c1` [Compound R950175], with over 10 µM.

Staying with this assay, now noted: Homo sapiens.
Consider `Fc1cnc(Nc2ccc3cc[nH]c3c2)nc1Nc1ccc2cc[nH]c2c1` [Compound R926594], for which 1.25 µM corresponded to half-maximal inhibition (IC50).

In turn, `O=[N+]([O-])c1cc(Nc2ncc(F)c(Nc3ccc(Cl)c([N+](=O)[O-])c3)n2)ccc1Cl` [Compound R950149] displayed a 50% inhibitory concentration (IC50) of over 10 µM.

Staying with this assay, now noted: Homo sapiens, Jurkat.
The compound `Oc1cccc(Nc2ncc(F)c(NCCSCc3c(F)cccc3Cl)n2)c1` [Compound R926724] had a half-maximal inhibitory concentration (IC50) of over 10 µM.

Regarding `Oc1cccc(Nc2ncc(F)c(Nc3cccc(OC(F)(F)F)c3)n2)c1` [Compound R926885], the IC50 was over 10 µM.

With `Oc1cccc(Nc2nc(NCc3ccc4c(c3)OCCO4)ncc2F)c1` [Compound R945168], the half-inhibitory concentration (IC50) was over 10 µM. In turn, `Oc1ccc(CCNc2ncc(Br)c(NCCc3ccc(O)cc3)n2)cc1` [Compound R925792] returned an IC50 of 8.65 µM.

As to `COc1ccc(Nc2ncc(F)c(Nc3ccc(OC)c(C(=O)O)c3)n2)cc1C(=O)O` [Compound R945067], the IC50 is over 10 µM.

The compound `Nc1cc(Cl)cc(Nc2ccnc(Nc3cc(N)cc(Cl)c3)n2)c1` [Compound R950133] returned an IC50 of 4.7 µM. The same measure, in the same setting: the value for `OCCOc1ccc(Nc2ncc(F)c(Nc3ccc4oc(CO)cc4c3)n2)cc1` [Compound R935174] was 3.99 µM; that for `CCOC(=O)c1nc(Nc2ccc3c(c2)OCCO3)nc(Nc2ccc3c(c2)OCCO3)c1[N+](=O)[O-]` [Compound R925852] was over 10 µM; that for `CC(C)c1cccc(Nc2ncc(F)c(Nc3cccc(C(C)C)c3)n2)c1` [Compound R940297] was over 10 µM. Same read-out and setting: the value for `Fc1cnc(Nc2ccc3[nH]ccc3c2)nc1Nc1ccc2c(c1)OCCO2` [Compound R926748] was 2.77 µM.

Consider `Fc1cnc(NCc2ccco2)nc1NCc1ccco1` [Compound R925769], for which the IC50 is over 10 µM. As for `CC(C)Oc1ccc(Nc2ncc(F)c(Nc3ccc(C(C)(C)CO)cc3)n2)cc1` [Compound R935168], inhibition was half-maximal at 3.71 µM (IC50). Still for that read-out and setting: then `CCOc1cccc(Nc2ncc(F)c(Nc3cccc(OCC)c3)n2)c1` [Compound R926064], with over 10 µM. `COc1ccc(-c2ccccc2)cc1Nc1ncc(Br)c(Nc2cc(-c3ccccc3)ccc2OC)n1` [Compound R925799] displayed an IC50 of over 10 µM. The same measure, in the same setting: the value for `Fc1cnc(Nc2ccc(OCc3ccccc3)c(C(F)(F)F)c2)nc1Nc1ccc(OCc2ccccc2)c(C(F)(F)F)c1` [Compound R950090] was over 10 µM; that for `Fc1cnc(Nc2ccc3c(c2)OCCO3)nc1NC1CCCCC1` [Compound R925794] was over 10 µM. Take `CN(C)c1ccc(Nc2ncc(F)c(Nc3ccc(N(C)C)cc3)n2)cc1` [Compound R926086]: 6.63 µM corresponded to half-maximal inhibition (IC50). Same read-out and setting: then `O=C(O)c1cc2cc(Nc3ncc(F)c(Nc4ccc5c(c4)OCCO5)n3)ccc2o1` [Compound R926698], with over 10 µM.

The record behind these values is patent US8158621B2, “Methods of treating or preventing autoimmune diseases with 2,4-pyrimidinediamine compounds” (Rigel Pharmaceuticals, Inc., priority 2002, dated 2012).
